Reference: ChEMBL document CHEMBL5620392, “Spiroindole-containing compounds bearing phosphonate group of potential Mpro-SARS-CoV-2 inhibitory properties” (Eur J Med Chem, 2023)

Experiments:
[1] = tested on: SARS-CoV-2; test: Antiviral activity against SARS-CoV-2 infected in African green monkey Vero E6 cells; format: functional, organism-based; conditions: Severe acute respiratory syndrome coronavirus 2, Vero C1008
[2] = tested on: SARS-CoV-2; test: Antiviral activity against SARS-CoV-2 infected in African green monkey Vero E6 cells assessed as inhibition of viral infection; format: functional, organism-based; conditions: Severe acute respiratory syndrome coronavirus 2, Vero C1008
[3] = Cytotoxicity against African green monkey Vero E6 cells assessed as reduction in cell viability; format: toxicity, cell-based, Vero C1008; conditions: chlorocebus sabaeus
[4] = Selectivity index, ratio of CC50 for African green monkey Vero E6 cells to IC50 for SARS-CoV-2 infected in African green monkey Vero E6 cells; format: toxicity; conditions: read-out: Selectivity Index

Compound	EC50 [1] [µM]	IC50 [2] [µM]	CC50 [3] [µM]	selectivity ratio [4]
COc1cccc2[nH]c(C(=O)N[C@@H](CC(C)C)C(=O)N[C@@H](C[C@@H]3CCNC3=O)C(=O)CO)cc12 [PF-00835231]	≤ 0.23			
CCN(CC)CCCC(C)Nc1ccnc2cc(Cl)ccc12 (stereo not drawn) [CHLOROQUINE]		25		
NC(=O)c1nc(F)cnc1O		1380	5260	3.8
CCN(CCO)CCCC(C)Nc1ccnc2cc(Cl)ccc12 (stereo not drawn) [HYDROXYCHLOROQUINE]		36.9	356	9.7
